Measured values from patent US20240360094A1, “COMPOUND FOR TREATING DISEASES RELATED TO CEREBRAL ISCHEMIC INJURY” (JIANGSU CHIA TAI FENGHAI PHARMACEUTICAL CO., LTD., priority 2021, published 2024).
Read-outs that look alike come from different tables or passages of the source. Marks after values point to notes of the source that are not given here. Values belong to the compound of their own block, whether it stands above or below them.

What was measured:
[1] = system: Middle cerebral artery occlusion (MCAO) models of SD rats; assay: Rat cerebral stroke model (MCAO), 28 days, pathological examination of brain; format: in vivo
Description: Middle cerebral artery occlusion (MCAO) models of SD rata were constructed by using the suture occlusion method. The rats were administered with the test compound for 28 consecutive days. The pharmacodynamic evaluation on the test compound for cerebral stroke was obtained based on general observation and neurobehavioral assessment. After anesthesia induction with 3.0% isoflurane in SD rats (240-280 g), the operation was performed and the right common carotid artery (CCA), and the right-side neck area was dissected to reveal the right common carotid artery (CCA), external carotid artery (ECA) and internal carotid artery (ICA). The ECA was ligated. The ICA was temporarily occluded. Sutures were threaded at both the proximal end and the distal end of CCA. The distal end was securely ligated, and a loosely tied knot was placed at the proximal end. A small incision was made on the CCA between these two sutures. A No. 4-0 suture was inserted through the incision of CCA and slowly and gently pushed into the ICA. The threading was stopped temporarily when reaching the artery clamp of ICA. The pre-ligation suture was further tightened. The artery clamp blocking the blood flow in the ICA was removed, allowing the suture occlusion to be advanced into the ICA until it entered the intracranial region. […] The insertion was stopped at the moment, and the time was recorded. The artery clamp on the CCA was removed and the incision was closed after no active bleeding was observed. The ischemic rats were placed at room temperature to keep their body temperature at 37° C., and anesthesia induction could be carried out 120 min later. The suture was slowly and gradually withdrawn when the rats were maintained under anesthesia, so that the proximal end of the suture returned to the ECA, thereby initiating reperfusion of the middle cerebral artery. Animals received the designated dosage immediately (within 10 min) after reperfusion. This dosing regimen continued once daily for a duration of 28 days, with the day of operation being defined as D1 (Day 1). A total of 5 groups were set, sham surgery group, model control group, NBP group (60 mg/kg, p.o., q.d), compound (I) low dose p.o. group (6 mg/kg, p.o., q.d), and a compound (I) high dose p.o. group (20 mg/kg, p.o., q.d). During administration, all animals were subjected to grid walking tests (D7, D14, D21, and D28, 4 times in total) and novel object recognition tests (adaptation for novel object recognition on D26, test on D27). After the completion of the 28-day dosing period, all surviving animals in the study were euthanized, and their brains were rapidly collected for pathological analysis. (3) Pathological examination: 1) the restoration range: samples with a restoration area range of >30% are considered to be good in recovery, while samples with a restoration area range of ≤30% are considered to be poor in recovery. […] In addition, for the compound (I) low dose group and the compound (I) high dose group, the proportion values of animal samples having >10 erythrocyte-containing blood vessels in the restoration area were 100% and 92.3%, respectively, both being no less than 90%.

[2] = Pharmacokinetic test in rats; format: in vivo, rat; conditions: male SD rats
Description: Male SD rats (weighing 180-260 g) were administered with compound (I) at a dose of 1.0 mg/kg by tail vein injection and at a dose of 10.0 mg/kg orally. Each group consisted of 3 animals. The solvent for administration was a solution of 5% DMSO+5% polyethoxylated castor oil (Cremophor EL) in normal saline. The rats were fasted for about 12 h before administration and were given ad libitum access to food 4 h after administration, and water was available all the time. Blood was collected from the orbit at about 0.2 mL before administration and 5 min, 15 min, 30 min, 1 h, 2 h, 4 h, 6 h, 8 h, and 24 h after administration. The samples were placed in EDTA-K2 anticoagulant EP tubes in an ice bath, and subjected to low-speed centrifugation at 4° C. and 3500 rpm for 10 min to isolate plasma, which was then stored at −20° C. before analysis. The concentration of compound (I) in the plasma was quantified by liquid chromatography-tandem mass spectrometry (LC-MS/MS). Pharmacokinetic parameters were calculated from the analysis results of the samples using WinNonlin software.

[3] = Distribution in brain tissues of rats (plasma and brain concentration); format: in vivo; conditions: rat, po, male SD rats, 20 mg/kg p.o.
Description: Plasma and brain tissue samples were collected from the animals at 0.5 h, 1 h, 4 h, and 24 h after administration. Collection of plasma: 0.2 mL of whole blood was collected by using an EP tube containing EDTA-K2 and centrifuged at 3500 g for 10 min, and then the upper plasma was collected and stored at −20° C. Collection of brain tissue: after the animals were euthanized, a proper amount of brain tissues were weighed out and homogenized with methanol in water (80%, w/v) at a ratio of 1:4. The concentration of compound in the plasma and brain tissue samples was quantified by liquid chromatography-tandem mass spectrometry (LC-MS/MS).

[4] = system: Middle cerebral artery occlusion (MCAO) models of SD rats; assay: Rat cerebral stroke model (MCAO), 28 days, novel object recognition test; format: in vivo; conditions: 60 mg/kg p.o. q.d, Mean ± SD
Description: (§1) Middle cerebral artery occlusion (MCAO) models of SD rata were constructed by using the suture occlusion method. The rats were administered with the test compound for 28 consecutive days. The pharmacodynamic evaluation on the test compound for cerebral stroke was obtained based on general observation and neurobehavioral assessment.
(§2) After anesthesia induction with 3.0% isoflurane in SD rats (240-280 g), the operation was performed and the right common carotid artery (CCA), and the right-side neck area was dissected to reveal the right common carotid artery (CCA), external carotid artery (ECA) and internal carotid artery (ICA). The ECA was ligated. The ICA was temporarily occluded. Sutures were threaded at both the proximal end and the distal end of CCA. The distal end was securely ligated, and a loosely tied knot was placed at the proximal end. A small incision was made on the CCA between these two sutures. A No. 4-0 suture was inserted through the incision of CCA and slowly and gently pushed into the ICA. The threading was stopped temporarily when reaching the artery clamp of ICA. The pre-ligation suture was further tightened. The artery clamp blocking the blood flow in the ICA was removed, allowing the suture occlusion to be advanced into the ICA until it entered the intracranial region. […] The insertion was stopped at the moment, and the time was recorded. The artery clamp on the CCA was removed and the incision was closed after no active bleeding was observed. The ischemic rats were placed at room temperature to keep their body temperature at 37° C., and anesthesia induction could be carried out 120 min later. The suture was slowly and gradually withdrawn when the rats were maintained under anesthesia, so that the proximal end of the suture returned to the ECA, thereby initiating reperfusion of the middle cerebral artery. Animals received the designated dosage immediately (within 10 min) after reperfusion. This dosing regimen continued once daily for a duration of 28 days, with the day of operation being defined as D1 (Day 1). A total of 5 groups were set, sham surgery group, model control group, NBP group (60 mg/kg, p.o., q.d), compound (I) low dose p.o. group (6 mg/kg, p.o., q.d), and a compound (I) high dose p.o. group (20 mg/kg, p.o., q.d). During administration, all animals were subjected to grid walking tests (D7, D14, D21, and D28, 4 times in total) and novel object recognition tests (adaptation for novel object recognition on D26, test on D27). After the completion of the 28-day dosing period, all surviving animals in the study were euthanized, and their brains were rapidly collected for pathological analysis.

[5] = Pharmacokinetics of 3-n-butylphthalide in rat plasma (value in literature); format: in vivo; conditions: rats, p.o. 60 mg/kg vs i.v. 10 mg/kg; calculated based on the literature value of AUC0-inf
[6] = system: Middle cerebral artery occlusion (MCAO) models of SD rats; assay: Rat cerebral stroke model (MCAO), 28 days, grid walking test; format: in vivo; conditions: 60 mg/kg p.o. q.d, Mean ± SD
Description: as §1, §2

[7] = rats, value in literature, cited from earlier work
[8] = brain, read-out: Measured value in brain tissues Concentration
[9] = plasma, read-out: Measured value in plasma Concentration

F ([2]; p.o. 10 mg/kg vs i.v. 1 mg/kg): 144.2% | AUC0-inf ([2]; rat, iv, i.v. 1 mg/kg, plasma): 59200 ng·h/mL | AUC0-t ([2]; rat, iv, i.v. 1 mg/kg, plasma): 52500 ng·h/mL | MRT inf ([2]; rat, iv, i.v. 1 mg/kg, plasma): 9.8 h | half-life ([2]; rat, iv, i.v. 1 mg/kg, plasma): 7.5 h | AUC0-inf ([2]; rat, po, p.o. 10 mg/kg, plasma): 854000 ng·h/mL | AUC0-t ([2]; rat, po, p.o. 10 mg/kg, plasma): 703000 ng·h/mL | Cmax ([2]; rat, po, p.o. 10 mg/kg, plasma): 56500 ng/mL | MRT inf ([2]; rat, po, p.o. 10 mg/kg, plasma): 13.2 h | Tmax ([2]; rat, po, p.o. 10 mg/kg, plasma): 0.5 h | half-life ([2]; rat, po, p.o. 10 mg/kg, plasma): 9.6 h | concentration at 0.5 h [3, 8]: 8730 ng/g | concentration at 1 h [3, 8]: 5730 ng/g | concentration at 4 h [3, 8]: 5030 ng/g | concentration at 24 h [3, 8]: 285 ng/g | concentration at 0.5 h [3, 9]: 241000 ng/mL | concentration at 1 h [3, 9]: 192000 ng/mL | concentration at 4 h [3, 9]: 182000 ng/mL | concentration at 24 h [3, 9]: 23500 ng/mL
SMILES: CCC/C(O)=C1/C(=O)Oc2ccccc21 [Compound (I), (Z)-3-(1-hydroxybutylidene)benzofuran-2 (3H)-one]
Number of animals with >10 erythrocyte-containing blood vessels ([1]; high dose 20 mg/kg p.o. q.d 28 days, N = 13, infarction restoration area, 20 mg/kg): 12** | Number of animals with >10 erythrocyte-containing blood vessels ([1]; high dose 20 mg/kg p.o. q.d 28 days, N = 13, infarction restoration area, listed as compound (I), 20 mg/kg): 12 | Number of animals with >10 erythrocyte-containing blood vessels ([1]; low dose 6 mg/kg p.o. q.d 28 days, N = 12, infarction restoration area, 6 mg/kg): 12** | Number of animals with >10 erythrocyte-containing blood vessels ([1]; low dose 6 mg/kg p.o. q.d 28 days, N = 12, infarction restoration area, listed as compound (I), 6 mg/kg): 12

F [5]: 16.6* % | concentration at 0.5 h [3, 8]: 28.5 ng/g | concentration at 1 h [3, 8]: 22.8 ng/g | concentration at 4 h [3, 8]: 10.2 ng/g | concentration at 0.5 h [3, 9]: 26 ng/mL | concentration at 1 h [3, 9]: 19.1 ng/mL | concentration at 4 h [3, 9]: 7.2 ng/mL | concentration at 24 h [3, 9]: 1.7 ng/mL
SMILES: CCCCC1OC(=O)c2ccccc21 (stereo not drawn) [NBP, 3-n-butylphthalide]
Number of samples Restoration area > 30% ([1]; 60 mg/kg p.o. q.d 28 days, N = 14, model control 3 of 17): 3 | Number of samples Restoration area ≤ 30% ([1]; 60 mg/kg p.o. q.d 28 days, N = 14, model control 14 of 17): 11 | Number of animals with ≤10 erythrocyte-containing blood vessels ([1]; 60 mg/kg p.o. q.d 28 days, N = 15, infarction restoration area, model control 10 of 17): 1 | Proportion of samples having >10 erythrocyte-containing blood vessels ([1]; 60 mg/kg p.o. q.d 28 days, model control 41.2): 93.3% | Proportion of samples showing good recovery ([1]; 60 mg/kg p.o. q.d 28 days, restoration area >30%, model control 17.6): 21.4% | Sniffing time Familiar object ([4]; model control 2.70 ± 2.22): 1.60 ± 1.01 S | Sniffing time Novel object ([4]; model control 3.82 ± 3.40): 4.94 ± 3.60 S | Recognition index Familiar object (FRI) ([4]; model control 45.19 ± 21.94): 29.03 ± 22.57% | Recognition index Novel object (NRI) ([4]; model control 54.81 ± 21.94): 70.97±22.57% | Misstep frequency ([6]; 1 W after operation, model control 7.24 ± 3.59): 7.37±3.03 times | Misstep frequency ([6]; 2 W after operation, model control 5.35 ± 4.40): 8.10 ± 2.97 times | Misstep frequency ([6]; 3 W after operation, model control 4.09 ± 3.140): 6.27 ± 2.890 times | Misstep frequency ([6]; 4 W after operation, model control 1.59 ± 0.84): 2.10 ± 1.46 times | AUC0-inf ([7]; i.v. 10 mg/kg): 8620.0 ng·h/mL | AUC0-t ([7]; i.v. 10 mg/kg): 7230.0 ng·h/mL | MRTinf ([7]; i.v. 10 mg/kg): 2.4 h | T1/2 ([7]; i.v. 10 mg/kg): 2.2 h | AUC0-inf ([7]; p.o. 60 mg/kg): 8560.0 ng·h/mL | AUC0-t ([7]; p.o. 60 mg/kg): 7110.0 ng·h/mL | Cmax ([7]; p.o. 60 mg/kg): 2900.0 ng/mL | MRTinf ([7]; p.o. 60 mg/kg): 3.8 h | T1/2 ([7]; p.o. 60 mg/kg): 2.83 h | Tmax ([7]; p.o. 60 mg/kg): 0.7 h
